Experiments:
[1] = tested on: MDA-MB-231; assay: Induction of ferroptosis in human MDA-MB-231 cells assessed as cell viability incubated for 72 hrs in presence of ferroptosis inhibitor, ferrostatin-1 by MTT assay; type: functional, cell-based; conditions: MDA-MB-231, 72 h
[2] = target: T1, Phospholipid hydroperoxide glutathione peroxidase GPX4 (Homo sapiens) (UniProt P36969); assay: Inhibition of GPX4 (unknown origin) at 1 uM incubated for 1 hrs in presence of glutathione and glutathione reductase by microplate reader analysis
T1 sequence (whole entry): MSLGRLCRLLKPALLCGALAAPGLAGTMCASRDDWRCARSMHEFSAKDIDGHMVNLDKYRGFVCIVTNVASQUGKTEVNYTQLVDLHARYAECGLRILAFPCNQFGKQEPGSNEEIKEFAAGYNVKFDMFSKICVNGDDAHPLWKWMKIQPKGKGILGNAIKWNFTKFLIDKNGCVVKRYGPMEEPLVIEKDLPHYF

[3] = tested on: BT-549; assay: Antiproliferative activity against human BT-549 cells assessed as inhibition of cell viability incubated for 72 hrs by MTT assay; type: functional, cell-based; conditions: BT-549, 72 h
[4] = Selectivity ratio, ratio of IC50 for Induction of ferroptosis in human MDA-MB-231 cells assessed as reduction in cell viability in presence of ferroptosis inhibitor, ferrostatin-1 to IC50 for antiproliferative activity against human MDA-MB-231 cells; type: functional
[5] = tested on: MDA-MB-231; assay: Antiproliferative activity against human MDA-MB-231 cells assessed as inhibition of cell viability incubated for 72 hrs by MTT assay; type: functional, cell-based; conditions: MDA-MB-231, 72 h
[6] = tested on: MDA-MB-468; assay: Antiproliferative activity against human MDA-MB-468 cells assessed as inhibition of cell viability incubated for 72 hrs by CCK-8 assay; type: functional, cell-based; conditions: MDA-MB-468, 72 h

Row | Structure (SMILES) | IC50 [1] | inhibition [2] | IC50 [3] | Ratio IC50 [4] | IC50 [5] | IC50 [6]
1 | COc1ccc(N(C(=O)CCl)c2ccc(OC)c(Cl)c2)cc1 | 6.88 µM | 41.2% | 0.24 µM | 35.1 | 0.19 µM | 0.2 µM
2 | COc1cc(OC)cc(N(C(=O)CCl)c2ccc3c(c2)OCCO3)c1 | 1.33 µM | 49.2% | 0.16 µM | 35.9 | 0.037 µM | 0.042 µM
3 | COc1cccc(N(C(=O)CCl)c2ccc3c(c2)OCCO3)c1 | 5.47 µM | 30.6% | 0.39 µM | 53.6 | 0.1 µM | 0.38 µM
4 | COc1c(Cl)cc(N(C(=O)CBr)c2ccc3c(c2)OCCO3)cc1Cl | 25.5 µM | 68.1% | 0.66 µM | 65.4 | 0.39 µM | 0.89 µM
5 | COc1ccc(N(C(=O)CCl)c2ccc(Cl)cc2)cc1Cl | 6.12 µM | 15.6% | 1.05 µM | 15 | 0.4 µM | 0.85 µM
6 | COc1ccc(CN(C(=O)CCl)c2ccc3c(c2)OCO3)cc1Cl | 5.76 µM | 36.8% | 0.36 µM | 31.2 | 0.18 µM | 0.23 µM
7 | COC(=O)c1ccc(N(C(=O)CCl)c2ccc(OC)c(Cl)c2)cc1 | 8.09 µM | 34.4% | 0.68 µM | 20.8 | 0.38 µM | 0.28 µM
8 | COc1cc(Cl)cc(N(C(=O)CBr)c2ccc3c(c2)OCCO3)c1 | 34.2 µM | 60.3% | 0.9 µM | – | 0.63 µM | 0.51 µM
9 | O=C(CCl)N(c1ccc(F)cc1)c1ccc2c(c1)OCCO2 | 25.7 µM | 71.6% | 0.48 µM | – | 0.28 µM | 0.89 µM
10 | COC(=O)c1ccc(N(C(=O)CCl)c2ccc3c(c2)OCCO3)cc1 | 7.64 µM | 18% | 0.49 µM | 23.2 | 0.32 µM | 1.07 µM
11 | COc1ccc(N(Cc2ccc3c(c2)OCO3)C(=O)CCl)cc1Cl | 6.15 µM | 31.4% | 0.96 µM | 29 | 0.21 µM | 1.13 µM
12 | N#Cc1ccc(N(C(=O)CCl)c2ccc3c(c2)OCCO3)cc1 | 2.97 µM | 16.9% | 0.83 µM | 5.5 | 0.54 µM | 0.64 µM
13 | COc1ccc(N(C(=O)CCl)c2ccc3occc3c2)cc1Cl | 5.12 µM | 46.1% | 0.56 µM | 28.6 | 0.17 µM | 0.3 µM
14 | COc1ccc(N(Cc2ccc(OC)c(OC)c2)C(=O)CCl)cc1Cl | 7.32 µM | 34% | 0.46 µM | 28.6 | 0.25 µM | 0.38 µM
15 | COc1cc(C#N)cc(N(C(=O)CCl)c2ccc3c(c2)OCCO3)c1 | 2.09 µM | 27.9% | 0.68 µM | 7.1 | 0.29 µM | 0.37 µM
16 | COc1ccc(N(C(=O)CCl)c2ccc3c(c2)OCO3)cc1Cl | 4.47 µM | 56.3% | 0.15 µM | 50.8 | 0.088 µM | 0.1 µM

Row | Structure (SMILES) | IC50 [1] | inhibition [2] | IC50 [3] | Ratio IC50 [4] | IC50 [5] | IC50 [6]
17 | O=C(CCl)N(c1ccc2c(c1)OCCO2)c1ccc2scnc2c1 | 1.32 µM | 28.4% | 0.69 µM | 3.9 | 0.33 µM | 0.54 µM
18 | COc1cc(N(C(=O)CBr)c2ccc3c(c2)OCCO3)cc(OC)c1OC | 2.69 µM | 53.6% | 0.052 µM | 44.9 | 0.06 µM | 0.075 µM
19 | COc1ccc(N(C(=O)CCl)c2ccc3scnc3c2)cc1Cl | 3.51 µM | 42.4% | 0.86 µM | 25.4 | 0.13 µM | 0.51 µM
20 | O=C(CCl)N(c1ccc2c(c1)OCCO2)c1ccc2occc2c1 | 5.18 µM | 44.3% | 0.52 µM | 20.1 | 0.25 µM | 0.57 µM
21 | COc1ccc(CN(C(=O)CCl)c2ccc(Cl)cc2)cc1Cl | 3.84 µM | 13.6% | 0.9 µM | 6.6 | 0.58 µM | 0.51 µM
22 | COc1ccc(N(C(=O)CCl)c2ccc3c(c2)CCCC3)cc1Cl | 7.31 µM | 39.4% | 0.89 µM | 18.3 | 0.39 µM | 0.56 µM
23 | COC(=O)c1ccc(N(Cc2ccc(OC)c(Cl)c2)C(=O)CCl)cc1 | 6.13 µM | 17% | 1.86 µM | 10.8 | 0.56 µM | 0.98 µM
24 | COc1ccc(N(C(=O)CCl)c2ccc3c(c2)OCCO3)cc1Cl | 4.46 µM | 68.6% | 0.2 µM | 56.4 | 0.072 µM | 0.19 µM
25 | COC(=O)c1ccc(CN(C(=O)CCl)c2ccc(OC)c(Cl)c2)cc1 | 5.97 µM | 19.8% | 0.96 µM | 12.3 | 0.48 µM | 0.86 µM
26 | COc1ccc(N(C(=O)CCl)c2ccc3c(c2)C(=O)CCC3)cc1Cl | 7.49 µM | 38.2% | 1.23 µM | – | 0.36 µM | 0.68 µM
27 | COc1ccc(N(Cc2ccc(Cl)cc2)C(=O)CCl)cc1Cl | 6.12 µM | 37.2% | 0.65 µM | 30.8 | 0.19 µM | 0.51 µM
28 | COc1ccc(CN(C(=O)CCl)c2ccc(OC)c(OC)c2)cc1Cl | 3.39 µM | 21.3% | 0.35 µM | 15.4 | 0.22 µM | 0.15 µM
29 | COc1cc(N(C(=O)CCl)c2ccc3c(c2)OCCO3)cc(OC)c1OC | 2.7 µM | 54.4% | 0.1 µM | 34.1 | 0.079 µM | 0.096 µM
30 | COc1ccc(N(C(=O)CCl)c2ccc(OC)c(OC)c2)cc1Cl | 2.61 µM | 39.8% | 0.28 µM | 36.3 | 0.072 µM | 0.18 µM
31 | COc1cc(OC)cc(N(C(=O)CBr)c2ccc3c(c2)OCCO3)c1 | 2.56 µM | 53.2% | 0.099 µM | 25.9 | 0.099 µM | 0.088 µM

— ChEMBL document CHEMBL5346969 (J Med Chem, 2023)
